We go through 10 molecules from ChEMBL document CHEMBL1156383, “Isolation and biological evaluation of filiformin, plakortide F, and plakortone G from the Caribbean sponge Plakortis sp” (J Nat Prod, 2001).

In brackets after ≈: the same amount, converted by molar mass. Activity calls are given as the source filed them. No cut-off for these calls is given here.

Test [1] relates to Human immunodeficiency virus. As to the kind of experiment: Antiviral activity against Human immunodeficiency virus. It counts as functional, organism-based. The note with it: Human immunodeficiency virus 1.
The test system of the next test is HT-29. As to the kind of experiment: Cytotoxicity against human HT-29 cells by alamar blue assay. It counts as functional, cell-based. Background: The colour change of resazurin is a common sign of viable cells or microbes.
Another test relates to A549. In words: Cytotoxicity against human A549 cells by alamar blue assay. It counts as functional, cell-based.
In the next test the test system is SK-MEL-28. In words: Cytotoxicity against human SK-MEL-28 cells by alamar blue assay. It counts as functional, cell-based.
In test [2] the test system is Plasmodium berghei. As to the kind of experiment: Antimalarial activity against Plasmodium berghei ANKA infected Swiss albino mice (Mus musculus) intraperitoneal dose over 3 days. It counts as functional, organism-based.
For test [3], the system named is Plasmodium falciparum. As to the kind of experiment: Antimalarial activity against Plasmodium falciparum D6. Format: functional, organism-based.
A further test has as its system Pseudomonas aeruginosa. In words: Antibacterial activity against Pseudomonas aeruginosa. It counts as functional, organism-based.
In test [4] the test system is Staphylococcus aureus. As to the kind of experiment: Antibacterial activity against Staphylococcus aureus. Format: functional, organism-based.
The subject of test [5] is Plasmodium berghei. As to the kind of experiment: Antimalarial activity as increased survival against Plasmodium berghei ANKA infected Swiss albino mice (Mus musculus) at 100 uM/kg intraperitoneal dose. It counts as functional, organism-based.
Test [6] relates to Mycobacterium intracellulare. As to the kind of experiment: Antibacterial activity against Mycobacterium intracellular. It counts as functional, organism-based.
For the next test, the system named is Candida albicans. As to the kind of experiment: Antifungal activity against Candida albicans. Format: functional, organism-based.
Test [7] deals with Mycobacterium tuberculosis. As to the kind of experiment: Antitubercular activity against Mycobacterium tuberculosis at 6.25 ug/mL. It counts as functional.
Test [8] has as its system Plasmodium berghei. In words: Antimalarial activity as parasitaemia against Plasmodium berghei ANKA infected Swiss albino mice (Mus musculus) at 100 uM/kg intraperitoneal dose after 3 days. Format: functional.
The subject of another test is Toxoplasma gondii. As to the kind of experiment: Antiparasitic activity against Toxoplasma gondii RH infected in mouse L929 cells assessed as [3H]uracil incorporation at 1 uM after 72 hrs by scintillation counting. It counts as functional.
For test [9], the system named is Plasmodium falciparum. In words: Antimalarial activity against chloroquine-resistant Plasmodium falciparum W2. Format: functional, organism-based.
Test [10] has as its system Staphylococcus aureus. In words: Antibacterial activity against methicillin-resistant Staphylococcus aureus. It counts as functional, organism-based.
The next test relates to Cryptococcus neoformans. In words: Antifungal activity against Cryptococcus neoformans. It counts as functional, organism-based.
A further test has as its system Hepatitis B virus. In words: Antiviral activity against Hepatitis B virus cell culture assay. It counts as functional, organism-based.
For a further test, the system named is Aspergillus fumigatus. As to the kind of experiment: Antifungal activity against Aspergillus fumigatus. It counts as functional, organism-based.
Another test relates to P388. As to the kind of experiment: Cytotoxicity against mouse P388 cells by alamar blue assay. It counts as functional, cell-based.
In another test the test system is THP-1. In words: Immunostimulatory activity in human THP1 cells assessed as LPS-induced NF-kappaB activation at =< 50 ug/mL by luciferase reporter gene assay. It counts as functional, cell-based. A general note: Reporter assays use an easily measured gene product as a stand-in for the process of interest.
For test [11], the system named is Mycobacterium tuberculosis. As to the kind of experiment: Antitubercular activity against Mycobacterium tuberculosis. It counts as functional.

`Cc1cn([C@H]2C[C@H](N=[N+]=[N-])[C@@H](CO)O2)c(=O)[nH]c1=O` [ZIDOVUDINE] yielded an EC50 in [1] of 0.004 µM.
Turning to `CC/C(=C(\c1ccccc1)c1ccc(OCCN(C)C)cc1)c1ccccc1` [TAMOXIFEN], the half-inhibitory concentration (IC50) with HT-29, in the test on A549 and in the test on SK-MEL-28 was 1.86 µg/mL (≈ 5.01 µM) each time.
For `CC/C=C/C(CC)CCC[C@@]1(CC)C[C@H](CC)[C@H](CC(=O)OC)OO1` (stereo not given in full) [PLAKORTIDE F], the half-inhibitory concentration (IC50) result with Plasmodium berghei [2] was “Not Active”; in the test with Plasmodium falciparum [3], 0.48 µg/mL (≈ 1.35 µM); in the test on HT-29, 1.25 µg/mL (≈ 3.53 µM); in the test with A549 it was 2.5 µg/mL (≈ 7.05 µM); in the test with Plasmodium falciparum [9], 0.39 µg/mL (≈ 1.1 µM); in the test with SK-MEL-28 it was 2.5 µg/mL (≈ 7.05 µM). In the test on P388, this molecule came in with an IC50 of 1.25 µg/mL (≈ 3.53 µM). Besides, the result (in the test on Pseudomonas aeruginosa; in the test on Staphylococcus aureus [4]; in the test with Plasmodium berghei [5]; in test [6]; with Candida albicans; in the test with Plasmodium berghei [8]) was inactive. In addition, the result with Staphylococcus aureus [10], with Cryptococcus neoformans and with Aspergillus fumigatus was inactive. This molecule had an inhibition at 6.25 µg/mL in [7] of 29%. Further, the inhibition at 1 µM in the test on Toxoplasma gondii worked out at 67%. The EC50 in test [1] is 13 µM; with Hepatitis B virus, over 100 µg/mL.
Take `O=C1C(O)=C([C@H]2CC[C@H](c3ccc(Cl)cc3)CC2)C(=O)c2ccccc21` [ATOVAQUONE]: the inhibition at 1 µM in the test on Toxoplasma gondii was 100%.
In the test with Hepatitis B virus, `Nc1ccn([C@@H]2CS[C@H](CO)O2)c(=O)n1` [LAMIVUDINE] returned an EC50 of 0.062 µg/mL (≈ 0.27 µM).
For the molecule `CCN(CC)CCCC(C)Nc1ccnc2cc(Cl)ccc12` (stereo not given) [CHLOROQUINE], the Activity with Plasmodium berghei [8] is given as 0.1%.
Regarding `Cc1cc2c(cc1Br)[C@]1(C)CC[C@](C)(CO2)[C@@H]1C`, in the test on THP-1, the outcome was inactive.
Molecule `CO[C@H]1/C=C/O[C@@]2(C)Oc3c(C)c(O)c4c(O)c(c(/C=N/N5CCN(C)CC5)c(O)c4c3C2=O)NC(=O)/C(C)=C\C=C\[C@H](C)[C@H](O)[C@@H](C)[C@@H](O)[C@@H](C)[C@H](OC(C)=O)[C@@H]1C` [RIFAMPIN] registered an MIC in test [11] of 0.25 µg/mL (≈ 0.304 µM).
Molecule `C[C@@H]1CC[C@H]2[C@@H](C)C(=O)O[C@@H]3O[C@@]4(C)CC[C@@H]1[C@]32OO4` [ARTEMISININ] returned an IC50 in the test on Plasmodium falciparum [3] of 0.012 µg/mL (≈ 0.0425 µM). In addition, in the test on Plasmodium berghei [8], the Activity worked out at 35.9%.
As to `CC/C=C/[C@H](CC)CCC[C@@]1(CC)C=C(CC)C(=O)O1` [PLAKORTONE G], the IC50 with Plasmodium falciparum [3] was 4.2 µg/mL (≈ 15.1 µM); in the test on HT-29, over 1 µg/mL; in the test with A549, over 1 µg/mL; in the test on Plasmodium falciparum [9], over 4.76 µg/mL; in the test with SK-MEL-28 it was over 10 µg/mL. Moreover, the outcome (in the test with Pseudomonas aeruginosa; in the test with Staphylococcus aureus [4]; in test [6]; in the test with Candida albicans; in the test with Staphylococcus aureus [10]; with Cryptococcus neoformans) was inactive. The result in the test on Aspergillus fumigatus was inactive. This molecule also displayed an inhibition at 6.25 µg/mL in test [7] of 4%. Further, the EC50 in the test on Hepatitis B virus was over 100 µg/mL.

For orientation: EC50 means the concentration needed to bring the measured effect to its halfway point. By IC50 is commonly meant the concentration that gives 50% inhibition. Read a low IC50 as greater potency. By inhibition is commonly meant the percentage by which the read-out fell short of the control. One may read the MIC as the lowest concentration that inhibits growth of the organism. Low readings indicate inhibition by little substance, high ones a need for much substance.
